In publication PMC10063562, “Metabolic profiling, antioxidant, and enzyme inhibition potential of Iris pseudacorus L. from Egypt and Japan: A comparative study” (Scientific Reports, 2023):
Read-outs that look alike come from different tables or passages of the source.

Columns and labels:
[1] = cited from earlier work; for antioxidant activity IC50: compared to propyl gallate, ref [78]; for free radical scavenging activity IC50: compared to trolox, ref [79]
pancreatic lipase [2] = conditions: cited from earlier work
[3] = parameters: method as in PMID 26799817; conditions: compared to trolox; ref [80]; cited from earlier work
α-glucosidase = conditions: cited from earlier work
pancreatic lipase [4] = molecular target: T1, pancreatic lipase (Sus scrofa, UniProt P00591); test: pancreatic lipase enzyme inhibition assay (4MUFO substrate); type: biochemical, porcine; conditions: mean ± SD, n=3
T1 construct: purchased Sigma Aldrich, Japan
T1 sequence (P00591 1-450): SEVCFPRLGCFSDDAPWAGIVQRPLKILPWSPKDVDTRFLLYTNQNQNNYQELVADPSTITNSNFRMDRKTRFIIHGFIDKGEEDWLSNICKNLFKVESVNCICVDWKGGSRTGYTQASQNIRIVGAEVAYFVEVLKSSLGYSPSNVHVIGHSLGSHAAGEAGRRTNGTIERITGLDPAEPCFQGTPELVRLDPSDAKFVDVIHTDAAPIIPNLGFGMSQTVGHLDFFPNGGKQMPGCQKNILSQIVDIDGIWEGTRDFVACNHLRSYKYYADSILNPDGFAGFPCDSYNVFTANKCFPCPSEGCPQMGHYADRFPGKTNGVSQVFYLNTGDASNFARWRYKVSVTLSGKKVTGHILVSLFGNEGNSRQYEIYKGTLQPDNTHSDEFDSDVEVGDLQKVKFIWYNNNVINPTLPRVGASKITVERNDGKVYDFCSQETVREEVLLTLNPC
Source text: 2, 2-Diphenyl-1-picrylhydrazyl (DPPH), pancreatic lipase enzyme from porcine animal, tyrosinase enzyme from mushroom plant and α-glucosidase enzyme from Saccharomyces cerevisiae fungi were purchased from the Sigma Aldrich, Japan. Arbutin and aluminum chloride (III) were obtained from Nacalai Tesque, Japan. Cetilistat was purchased from Combi-Blocks, United States of America. Acarbose and Trolox were obtained from Wako Pure Chemical Industries, Japan. Methanol was purchased from Al-Nasr Pharmaceutical Company, Egypt.
The anti-hyperlipidemic potential of yellow flag extracts was conducted by Bitou et al. method with minor alterations. In an ELISA microplate reader, pancreatic lipase solution (50 μL at pH 7.4) in phosphate buffer (100 μg/mL, 0.2 M) was added together with 50 μL of I. pseudacorus extract at a concentration ranging from 1.56 to 100 μg/mL. After 10 min of incubation at 25 °C. […] The quantity of 4-methylumbelliferone liberated by the lipase enzyme was measured fluorometrically using a spectrophotometer at 355 nm excitation wavelength and 460 nm emission wavelength. […] The percentage of lipase inhibition was calculated using the following equation: [1- As/Ac ]*100], where As and Ac symbolize I. pseudacorus extract and […] absorbances. […]
DPPH and enzyme inhibitory assays were carried out in triplicates, and the values were expressed as mean ± standard deviation. […]

rats = conditions: pre-administration in rats (5 and 10 mg/kg); ref [91]; cited from earlier work
[5] = DPPH radical scavenging assay; conditions: mean ± SD, n=3
Description: The antioxidant activity of the yellow flag extracts was determined using DPPH scavenging assay in accordance with Shimamura et al. with minimal adjustments. The reaction mixture in 96 well culture plate contained. […] After 20 min of incubation of the reaction mixture at 25 °C. The degree of bleaching of the violet tint of DPPH depends on the ability of I. pseudacorus extracts for hydrogen/electron donation and was measured spectrophotometrically at 520 nm of wavelength. Noteworthy, trolox (an artificial anti-oxidant agent) was used as a positive control. The percentage of antioxidant capacity of the yellow flag extracts equals to [ Ac-As/Ac ] *100 Where Ac, As represents the control absorbance and the I. pseudacorus extract absorbance, respectively. The graph was plotted and the inhibitory concentration 50 (IC50) value was calculated. DPPH and enzyme inhibitory assays were carried out in triplicates, and the values were expressed as mean ± standard deviation. For the determination of the in vitro antioxidant, tyrosinase, lipase, and α-glucosidase inhibition potential, the (IC50) was estimated from the graph plots of the dose–response curves at each sample concentration by GraphPad Prism software (San Diego, CA, USA). The IC50 was defined as the concentration of the sample required to inhibit 50% of the tested enzyme activity.

protein glycation = system: protein glycation; parameters: method as in PMID 23270944; conditions: at concentration of 3 µg/mL; ref [83]; cited from earlier work
[6] = system: Chinese hamster lung fibroblast (V79-4) cells; parameters: method as in PMID 16102749; conditions: V79-4 cells exposed to hydrogen peroxide; ref [77]; cited from earlier work
[7] = compared with acarbose, ref [6]

For `COc1ccc(-c2coc3cc(O)c(OC)c(O)c3c2=O)cc1` [Irisolidone (34), Irisolidone], the “antioxidant activity IC50” value [1] is listed as 12.62 µg/mL.

For Schaftoside [Schaftoside (18)], the “pancreatic lipase % inhibition” value (pancreatic lipase [2]; at a concentration of 250 μg/mL, ref [88]) is given as 95.5% and the “pancreatic lipase IC50” value (pancreatic lipase [2]; compared with orlistat, ref [88]) is given as 130 µg/mL.

For `O=c1c(-c2ccc(O)cc2)coc2cc(O)cc(O)c12` [Genistein (30), Genistein], the “DPPH IC50” value [3] is given as 1.89 ± 0.16 µg/mL and the “α-glucosidase IC50” value (α-glucosidase; compared with acarbose, ref [85]) is given as 40.09 ± 0.94 µg/mL.

For `CCCOC(=O)c1cc(O)c(O)c(O)c1` [propyl gallate, reference compound], the “antioxidant activity IC50” value [1] is given as 6.72 µg/mL.

In the case of `CCCCCCCCCCCCCCCCOc1nc2ccc(C)cc2c(=O)o1` [Cetilistat], the IC50 (pancreatic lipase [4]) is reported as 18.6 µM.

In the case of `O=c1c(O)c(-c2ccc(O)c(O)c2)oc2cc(O)cc(O)c12` [Quercetin (38), Quercetin], the rat fat absorption (rats) is listed as “remarkable decrease in rat fat absorption”.

In the case of `Cc1c(C)c2c(c(C)c1O)CCC(C)(C(=O)O)O2` (stereo not drawn) [Trolox, reference compound], the “DPPH IC50” value [5] is listed as 14.59 µg/mL and the “free radical scavenging activity IC50” value [1] is listed as 17.3 µg/mL.

In the case of `COc1ccccc1-c1coc2cc(O)c(OC)c(O)c2c1=O` [5,7-Dihydroxy-2',6-dimethoxyisoflavone], the “protein glycation % inhibition” value (protein glycation) is listed as 70.41% and the “α-glucosidase IC50” value (α-glucosidase; compared to acarbose, ref [83]) is listed as 0.321 ± 0.008 µg/mL.

For `O=c1cc(-c2ccc(O)cc2)oc2cc(O)c([C@@H]3O[C@H](CO)[C@@H](O)[C@H](O)[C@H]3O)c(O)c12` [Isovitexin (43), Isovitexin], the “α-glucosidase IC50” value (α-glucosidase; [7]) is given as 6.7 µg/mL.

For `COc1c(O)cc2occ(-c3ccc(O)cc3)c(=O)c2c1O` [Tectorigenin (31), Tectorigenin], the “intracellular free radical scavenging and lipid peroxidation” value [6] is given as “scavenged intracellular free radicals and reduced lipid peroxidation”.

For `C[C@@H]1O[C@@H](OC[C@H]2O[C@@H](Oc3c(-c4ccc(O)c(O)c4)oc4cc(O)cc(O)c4c3=O)[C@H](O)[C@@H](O)[C@@H]2O)[C@H](O)[C@H](O)[C@H]1O` [rutin, reference compound], the “protein glycation % inhibition” value (protein glycation) is listed as 82.50%.

For `O=c1cc(-c2ccc(O)cc2)oc2c([C@@H]3O[C@H](CO)[C@@H](O)[C@H](O)[C@H]3O)c(O)cc(O)c12` [Vitexin (42), Vitexin], the “α-glucosidase IC50” value (α-glucosidase; [7]) is given as 4.1 µg/mL and the “free radical scavenging activity IC50” value [1] is given as 31.4 µg/mL.

For “Kaempferol-O-deoxyhexosyl hexoside (Kaempferol-O-rutinoside) [Compound 21]”, the “pancreatic lipase IC50” value (pancreatic lipase [2]; compared to orlistat, ref [90]) is listed as 1.7 ± 0.30 µg/mL.
